# Entries after “also recorded” stand apart in the source; their conditions may differ.
# Tests used:
# Assay type in all cases: in vivo
# Drosophila melanogaster [1] = assay: Two-choice trap olfactory assay; conditions: for interaction with control trap in comparison with repellent-treated trap: low participation; for trap preference (control trap versus repellent-treated trap): DMSO control vs 25 μl of 25% by weight in DMSO
# Method: (§1) The D. melanogaster assays served as a model for SWD repellency. Forty different aromatic amides were studied at a 25% concentration by weight in DMSO, and the fruit fly chemosensory behaviors in response thereto were characterized. […]
# (§2) Flies were monitored throughout their life cycle. Five-day-old flies (10 male and 10 females) were selected per assay, and starved for a predetermined length of time (e.g., 20 hours). After starvation, two different assays were used to study the olfactory related responses.
# FIG. 7B is a diagram of a 2-choice trap olfactory assay. Two ACV traps 110a-b were prepared as above, in a cylinder 150 from upturned 1.5 ml micro-centrifuge tubes with the tapered end trimmed away, and a pipette 120a-b inserted into the inverted micro-centrifuge tube. In the cylinder 150, one trap 110a was treated with 25 μl of DMSO (as a control) on the filter paper 135, and the other trap 110b with the 25 μl of the 25% by weight solution of the test compound in DMSO applied to the filter paper 130. 125 μl of 10% ACV, diluted with water, was placed in the bottom of the traps 110a-b. Both traps contained filter paper as prepared in the one-trap assay. All trials were screened for 24 hours, and the number of flies 105 in each trap was counted. Positions of the traps (i.e., left or right, relative to the location of the chamber 150 in the room) were randomized. The number of flies 105 in each trap 110a and 110b were counted and recorded at 4, 6 and 24 hours.
# (§3) The different assays assigned results as follows. For the single-choice olfactory assay, the numbers of flies were counted according to (1) those that entered the trap, (2) those that stayed outside the trap and lived, and (3) those that died outside the trap. For the two-choice olfactory assay, the numbers of flies were counted according to (1) those that entered the control trap, (2) those that entered the trap containing the repellent, (3) those that stayed outside of both traps and lived, and (4) those that died outside the traps. For the gustatory assay, the numbers of flies were counted according to those that had (1) a red-colored abdomen, (2) a blue-colored abdomen, (3) a purple abdomen, and (4) no added color to their abdomen. A nonparametric Mann-Whitney U test was used to compare the statistical differences between assays using DEET and the same assays using one of the present repellents for all trials.
# Drosophila melanogaster [2] = assay: One-choice (single-trap) olfactory trap assay; conditions: for repellency compared with DEET, one-choice trap assay: 25 μl of 25% by weight in DMSO on filter paper, 10% ACV attractant, 6 hours (FIG. 10) and 24 hours (FIG. 13); for fly death during the 6-hour screen: starved flies
# Method: as §1, §2
# FIG. 7A is a diagram of a single-trap olfactory assay. Flies 105 were placed in a cylindrical chamber 100 containing a trap 110. The trap 110 was fashioned from an upturned 1.5 ml micro-centrifuge tube where the tapered end was trimmed away. A pipette tip 120 was cut to form a funnel and inserted into the bottom of the inverted micro-centrifuge tube 110. Then, filter paper 130 was placed between the pipette tip 120 and tip of micro-centrifuge tube 110. The pipette tip 120 was placed so that entering flies could not make physical contact with the filter paper 130. The filter paper 130 was placed in this manner so that when the filter paper 130 was treated with the repellent solution, the flies would only be able to smell at a distance and should be repelled even in the presence of an attractant.
# A 25 μl sample of test compound at 25% concentration was applied to the filter paper 130 in order to provide the odor source. At the bottom of the trap 110, 125 μl of 10% apple cider vinegar (ACV) was placed as an attractant. Trials were conducted for 24 hours to visualize the number of flies 105 entering the trap 110. Typically, flies that entered the trap 110 contacted the liquid ACV and died in the ACV. Flies were counted and recorded at 4, 6, and 24 hours. No control other than DEET was used for this experiment, because it was a single trap, comparing the number of flies 105 repelled by the repellent versus the number of flies 105 interacting with the attractant (ACV).
# as §3
# Drosophila melanogaster [3] = assay: Gustatory assay (fructose preference, food colouring); conditions: 1 hour feeding; for gustatory repellency (preference for repellent-treated sugar versus control-treated sugar): 35 mM fructose with 5 mM repellent vs 25 mM fructose control
# Method: The D. melanogaster assays served as a model for SWD repellency. Forty different aromatic amides were studied at a 25% concentration by weight in DMSO, and the fruit fly chemosensory behaviors in response thereto were characterized.
# In the gustatory assay, the consumption of sugar (from a solution in a gel) treated at varying concentrations of the present repellent compounds was compared to the consumption of control-treated sugar. For the habituation assay, flies were tested over repeated exposures to the present repellent compounds to measure changes in behavioral preference for the compounds.
# Flies were continuously monitored throughout their lifecycle. In doing so, 3- to 5-day-old flies (half male and half female) were selected and starved for 20 hours. Flies were then introduced to 96-well plates 200 with wells 210a-220vv that were alternately filled with two different sugar solutions, as shown in FIG. 8. Wells 210a-210vv were filled with 25 mM fructose in DMSO (as a control), colored with red food coloring, and wells 220a-220vv were filled with […] fructose mixed with 5 mM of the present insect repellent in DMSO, colored with blue food coloring. The food coloring is nontoxic, so it has no effect on preference. Using an established protocol (Montell, C., et al., Avoiding DEET through insect gustatory receptors. NIH Neuron 67(4), 2010, 555-561: doi:10.1016/j.neuron.2010.07.006), flies selected between the fructose control or fructose mixed with aromatic amide repellent. Tests were performed on at least one group of about 50 males and at least one group of 50 females. Flies were placed in the dark for 1 hour, then the food coloring in the fly's abdomen was visualized under a compound microscope. The color of the abdomen was noted, along with the intensity, providing a quantitative idea of how much sugar each fly consumed, and from which type of well (control vs. mixed with repellent). The flies were fed for one hour so that the amount of food coloring was significant enough to be visible. A preference index was made to define the amount of food coloring consumed and assess the degree of repellent avoidance via gustatory processes.
# as §3
# [4] = one-choice trap, 25% concentration
# [5] = one-choice trap, 25% concentration, 6 hours
Compound,"participation in choosing either trap (Drosophila melanogaster [1]; 25% by weight, 6 hours)",trap preference (control trap versus repellent-treated trap) (Drosophila melanogaster [1]; 6 hours),"repellency compared with DEET, one-choice trap assay (Drosophila melanogaster [2])",fly death during the 6-hour screen (Drosophila melanogaster [2]; [5]),other results
Cc1cccc(C(=O)N2CCCCC2)c1 [Compound 1mC],less overall participation,preference for the control trap,more effective than DEET,no fly death,"average number of flies that chose a trap in 6 hours (Drosophila melanogaster [1]; 25% by weight, 20 flies per assay, 6 hours): 1 flies; interaction with control trap in comparison with repellent-treated trap (Drosophila melanogaster [1]; 25% by weight): more flies interacted with the control trap; aversion (no flies entering the single-choice trap) (Drosophila melanogaster [2]; [4]): 100%; ranking among repellents in the one-choice assay (Drosophila melanogaster [2]; [4]): most effective repellents; repellency (Drosophila melanogaster [2]; [5]): significant repellency"
Cc1cccc(C(=O)N2CCOCC2)c1 [Compound 1mD],–,–,–,–,gustatory repellency (preference for repellent-treated sugar versus control-treated sugar) (Drosophila melanogaster [3]): act as a gustatory repellent
"Cc1cccc(C(=O)N2CCN(C)CC2)c1 [Compound 1mE, 1-methyl-4-(3-methylbenzoyl)piperazine]",–,–,more effective than DEET,some fly death,–
Cc1ccccc1C(=O)N1CCOCC1 [Compound 1oD],less overall participation,preference for the control trap,more effective than DEET,some fly death,–
Cc1ccccc1C(=O)N1CCN(C)CC1 [Compound 1oE],less overall participation,preference for the control trap,–,–,interaction with control trap in comparison with repellent-treated trap (Drosophila melanogaster [1]; 25% by weight): more flies interacted with the control trap
O=C(c1cccc(F)c1)N1CCCCC1 [Compound 2mC],–,–,more effective than DEET,–,–
O=C(c1ccccc1F)N1CCCC1 [Compound 2oB],less overall participation,preference for the control trap,–,–,interaction with control trap in comparison with repellent-treated trap (Drosophila melanogaster [1]; 25% by weight): more flies interacted with the control trap
O=C(c1ccccc1F)N1CCCCC1 [Compound 2oC],–,–,more effective than DEET,no fly death,repellency (Drosophila melanogaster [2]; [5]): significant repellency
O=C(c1ccccc1F)N1CCOCC1 [Compound 2oD],–,–,more effective than DEET,–,–
O=C(c1cccc(C(F)(F)F)c1)N1CCCC1 [Compound 3mB],less overall participation,preference for the control trap,more effective than DEET,no fly death,repellency (Drosophila melanogaster [2]; [5]): significant repellency
O=C(c1cccc(C(F)(F)F)c1)N1CCOCC1 [Compound 3mD],–,–,more effective than DEET,some fly death,–
O=C(c1ccccc1C(F)(F)F)N1CCCC1 [Compound 3oB],–,–,more effective than DEET,–,–
CN1CCN(C(=O)c2ccccc2C(F)(F)F)CC1 [Compound 3oE],–,–,more effective than DEET,–,–
O=C(c1cccc([N+](=O)[O-])c1)N1CCCCC1 [Compound 4mC],–,–,more effective than DEET; also recorded: significantly better than DEET,all the flies were dead,"average number of flies that entered the trap (Drosophila melanogaster [2]; one-choice trap, 25% concentration, 20 flies per assay, 6 hours): 5 flies; fly mortality (Drosophila melanogaster [2]; one-choice trap, 25% concentration, exposure in the gas phase): high mortality"
O=C(c1cccc([N+](=O)[O-])c1)N1CCOCC1 [Compound 4mD],–,–,–,–,gustatory repellency (preference for repellent-treated sugar versus control-treated sugar) (Drosophila melanogaster [3]): act as a gustatory repellent
CN1CCN(C(=O)c2ccccc2[N+](=O)[O-])CC1 [Compound 4oE],–,–,more effective than DEET,some fly death,–
COc1cccc(C(=O)N2CCCC2)c1 [Compound 5mB],much higher mean participation,significantly greater preference for the control trap,–,–,"gustatory repellency compared with DEET (Drosophila melanogaster [3]; 5 mM repellent, FIG. 12): worse than DEET; gustatory repellency (preference for repellent-treated sugar versus control-treated sugar) (Drosophila melanogaster [3]): act as a gustatory repellent; also recorded: slightly lower preference"
COc1cccc(C(=O)N2CCCCC2)c1 [Compound 5mC],–,–,more effective than DEET,–,gustatory repellency (preference for repellent-treated sugar versus control-treated sugar) (Drosophila melanogaster [3]): act as a gustatory repellent
COc1cccc(C(=O)N2CCN(C)CC2)c1 [Compound 5mE],less overall participation,preference for the control trap,–,–,–
COc1ccccc1C(=O)N1CCCCC1 [Compound 5oC],–,–,more effective than DEET,–,–
Nc1cccc(C(=O)N2CCCC2)c1 [Compound 6mB],higher mean participation,preferred the control trap,–,–,–
CN1CCN(C(=O)c2cccc(N)c2)CC1 [Compound 6mE],–,–,more effective than DEET,–,–
Nc1ccccc1C(=O)N1CCCCC1 [Compound 6oC],–,–,more effective than DEET,–,–

# From US12108762B2, “Methods of controlling crop pests using aromatic amide insect repellents, methods of making aromatic amide insect repellents, and novel aromatic amide insect repellents” (priority 2020, dated 2024)
